Results taken from patent US10144706B2 (BRISTOL-MYERS SQUIBB COMPANY, priority 2016, dated 2018).
Where two headings read alike, the source gives them in different places.

Biological target: T1, PD-1/PD-L1 interaction (PD-1-Ig / PD-L1-His) (Homo sapiens, UniProt Q9NZQ7)
T1 construct: hPDL1(18-239)-TVMV-His; TVMV protease site linker (C); made in house; host or cells: HEK293T
Test: PD-1/PD-L1 Homogenous Time-Resolved Fluorescence (HTRF) binding assay
Conditions: PD-L1-His 10 nM, PD-1-Ig 20 nM, read-out: Range or IC50
Summary of the method: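 HTRF detection used 1 nM europium-cryptate anti-Ig and 20 nM APC anti-His. Compounds first saw 10 nM PD-L1-His for 15 min, and 20 nM PD-1-Ig was then added for another 15 min. Buffer was dPBS plus 0.1% BSA and 0.05% Tween-20. All concentrations are final.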

T1 sequence (Q9NZQ7 with tags, fused parts or gaps): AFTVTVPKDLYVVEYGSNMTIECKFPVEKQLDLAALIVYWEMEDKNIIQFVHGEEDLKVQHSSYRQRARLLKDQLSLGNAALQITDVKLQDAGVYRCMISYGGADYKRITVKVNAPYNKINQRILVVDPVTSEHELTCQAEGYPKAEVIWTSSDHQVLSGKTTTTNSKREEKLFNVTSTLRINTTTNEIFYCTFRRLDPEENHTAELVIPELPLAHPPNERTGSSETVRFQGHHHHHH

Row | IC50 (IC50 range class) [nM] | IC50 (numeric IC50) [nM] | Compound
1 | 0.04 to 20 |  | Cc1cc(OCc2cccc(-c3cccc(COc4cc(OCc5cncc(C#N)c5)c(CN(C)[C@@H](CCO)C(=O)O)cc4Cl)c3C)c2C)c(Cl)cc1CN(C)[C@@H](CCO)C(=O)O [Example 5505, N-(4-((3′-((4-((((S)-1-carboxy-3-hydroxypropyl)(methyl)amino)methyl)-2-chloro-5-((5-cyanopyridin-3-yl)methoxy)phenoxy)methyl)-2,2′-dimethyl-[1,1′-biphenyl]-3-yl)methoxy)-5-chloro-2-methylbenzyl)-N-methyl-L-homoserine]
2 | 0.04 to 20 |  | Cc1cc(OCc2cccc(-c3cccc(COc4cc(OCc5cncc(C#N)c5)c(CN[C@@](C)(CO)C(=O)O)cc4Cl)c3C)c2C)c(Cl)cc1CN[C@@](C)(CO)C(=O)O [Example 5507, (S)-2-((4-((3′-((4-((((S)-2-carboxy-1-hydroxypropan-2-yl)amino)methyl)-2-chloro-5-((5-cyanopyridin-3-yl)methoxy)phenoxy)methyl)-2,2′-dimethyl-[1,1′-biphenyl]-3-yl)methoxy)-5-chloro-2-methylbenzyl)amino)-3-hydroxy-2-methylpropanoic acid]
3 | 0.04 to 20 |  | CC(CO)(CO)NCc1cc(Cl)c(OCc2cccc(-c3cccc(COc4cc(OCc5cncc(C#N)c5)c(CNC(C)(CO)CO)cc4Cl)c3)c2)cc1OCc1cncc(C#N)c1 [Example 40010]
4 | 0.04 to 20 |  | C[C@](CO)(NCc1cc(Cl)c(OCc2cccc(-c3cccc(COc4cc(OCc5cncc(C#N)c5)c(CN[C@@](C)(CO)C(=O)O)cc4Cl)c3)c2)cc1OCc1cncc(C#N)c1)C(=O)O [Example 40040]
5 | 0.04 to 20 |  | N#Cc1cncc(COc2cc(OCc3cccc(-c4cccc(COc5cc(OCc6cncc(C#N)c6)c(CN6CCCC[C@H]6C(=O)O)cc5Cl)c4)c3)c(Cl)cc2CN2CCCC[C@H]2C(=O)O)c1 [Example 40050]
6 | 20.1 to 90 |  | N#Cc1cncc(COc2cc(OCc3cccc(-c4cccc(COc5cc(OCc6cncc(C#N)c6)c(CN6CCCCC6)cc5Cl)c4)c3)c(Cl)cc2CN2CCCCC2)c1 [Example 40060]
7 | 0.04 to 20 |  | CCN(CC)CCCNCc1cc(Cl)c(OCc2cccc(-c3cccc(COc4cc(OCc5cncc(C#N)c5)c(CNCCCN(CC)CC)cc4Cl)c3)c2)cc1OCc1cncc(C#N)c1 [Example 40070]
8 | 0.04 to 20 |  | Cc1c(COc2cc(OCc3cncc(C#N)c3)c(CN[C@H](C(=O)O)C(C)(C)O)cc2Cl)cccc1-c1cccc(COc2cc(OCc3cncc(C#N)c3)c(CN[C@H](C(=O)O)C(C)(C)O)cc2Cl)c1C [Example 40090]
9 | 0.04 to 20 |  | Cc1c(COc2cc(OCc3cncc(C#N)c3)c(CNC(C(=O)O)C(C)O)cc2Cl)cccc1-c1cccc(COc2cc(OCc3cncc(C#N)c3)c(CNC(C(=O)O)C(C)O)cc2Cl)c1C (stereo not shown) [Example 40100]
10 | 0.04 to 20 |  | Cc1c(COc2cc(OCc3cncc(C#N)c3)c(CNC[C@H](O)CC(=O)O)cc2Cl)cccc1-c1cccc(COc2cc(OCc3cncc(C#N)c3)c(CNC[C@H](O)CC(=O)O)cc2Cl)c1C [Example 40110]
11 | 0.04 to 20 |  | Cc1c(COc2cc(O)c(CN[C@@](C)(CO)C(=O)O)cc2Cl)cccc1-c1cccc(COc2cc(OCc3cncc(C#N)c3)c(CN[C@@](C)(CO)C(=O)O)cc2Cl)c1C [Example 40130]
12 | 0.04 to 20 |  | C[C@@](CO)(NCc1cc(Cl)c(OCc2cccc(-c3cccc(COc4cc(OCc5cncc(C#N)c5)c(CN[C@@](C)(CO)C(=O)O)cc4Cl)c3Cl)c2Cl)cc1OCc1cncc(C#N)c1)C(=O)O [Example 40140]
13 | 20.1 to 90 |  | COC(=O)[C@](C)(CO)NCc1cc(Cl)c(OCc2cccc(-c3cccc(COc4cc(OCc5cncc(C#N)c5)c(CN[C@@](C)(CO)C(=O)OC)cc4Cl)c3C)c2C)cc1OCc1cncc(C#N)c1 [Example 40150]
14 | 0.04 to 20 |  | Cc1c(COc2cc(O)c(CN[C@@](C)(CO)C(=O)O)cc2Cl)cccc1-c1cccc(COc2cc(O)c(CN[C@@](C)(CO)C(=O)O)cc2Cl)c1C [Example 40160]
15 | 0.04 to 20 |  | N#Cc1cncc(COc2cc(OCc3cccc(-c4cccc(COc5cc(OCc6cncc(C#N)c6)c(CNC(CCO)C(=O)O)cc5Cl)c4Cl)c3Cl)c(Cl)cc2CNC(CCO)C(=O)O)c1 (stereo not shown) [Example 40170]
16 | 0.04 to 20 |  | Cc1c(COc2cc(OCC3CC3)c(CNC(CCO)C(=O)O)cc2Cl)cccc1-c1cccc(COc2cc(OCC3CC3)c(CNC(CCO)C(=O)O)cc2Cl)c1C (stereo not shown) [Example 40180]
17 | 0.04 to 20 |  | N#Cc1cncc(COc2cc(OCc3cccc(-c4cccc(COc5cc(OCc6cncc(C#N)c6)c(CN[C@@H](CCO)C(=O)O)cc5Cl)c4Cl)c3Cl)c(Cl)cc2CN[C@@H](CCO)C(=O)O)c1 [Example 40190]
18 | 0.04 to 20 |  | Cc1c(COc2cc(OCc3cncc(C#N)c3)c(CNC(CO)(Cc3ccccc3)C(=O)O)cc2Cl)cccc1-c1cccc(COc2cc(OCc3cncc(C#N)c3)c(CNC(CO)(Cc3ccccc3)C(=O)O)cc2Cl)c1C (stereo not shown) [Example 40200]
19 |  | 1.1 | Cc1c(COc2cc(OCc3cncc(C#N)c3)c(CNC(C)(CO)C(=O)O)cc2Cl)cccc1-c1cccc(COc2cc(OCc3cncc(C#N)c3)c(CNC(C)(CO)C(=O)O)cc2Cl)c1C (stereo not shown) [Example 40210]
20 | 0.04 to 20 |  | Cc1c(COc2cc(OCc3cncc(C#N)c3)c(CNC[C@H](O)C(=O)O)cc2Cl)cccc1-c1cccc(COc2cc(OCc3cncc(C#N)c3)c(CNC[C@H](O)C(=O)O)cc2Cl)c1C [Example 40220]

Row | IC50 (IC50 range class) [nM] | IC50 (numeric IC50) [nM] | Compound
21 | 0.04 to 20 |  | Cc1c(COc2cc(OCc3cncc(C#N)c3)c(CNCC(O)CC(=O)O)cc2Cl)cccc1-c1cccc(COc2cc(OCc3cncc(C#N)c3)c(CNCC(O)CC(=O)O)cc2Cl)c1C (stereo not shown) [Example 40230]
22 | 0.04 to 20 |  | Cc1c(COc2cc(OCc3cncc(C#N)c3)c(CNC(C)(CO)CO)cc2Cl)cccc1-c1cccc(COc2cc(OCc3cncc(C#N)c3)c(CNC(C)(CO)CO)cc2Cl)c1C [Example 40250]
23 | 0.04 to 20 |  | Cc1c(COc2cc(OCc3cncc(C#N)c3)c(CN[C@@H](CO)C(=O)O)cc2Cl)cccc1-c1cccc(COc2cc(OCc3cncc(C#N)c3)c(CN[C@H](CO)C(=O)O)cc2Cl)c1C [Example 40260]
24 | 0.04 to 20 |  | Cc1c(COc2cc(OCc3cncc(C#N)c3)c(CNC(CCO)C(=O)O)cc2Cl)cccc1-c1cccc(COc2cc(OCc3cncc(C#N)c3)c(CNC(CCO)C(=O)O)cc2Cl)c1C (stereo not shown) [Example 40270]
25 | 0.04 to 20 |  | Cc1c(COc2cc(OCc3cncc(C#N)c3)c(CNC/C=C/C(=O)O)cc2Cl)cccc1-c1cccc(COc2cc(OCc3cncc(C#N)c3)c(CNC/C=C/C(=O)O)cc2Cl)c1C [Example 40280]
26 | 90.1 to 1000 |  | COC(=O)[C@@H]1CCCCN1Cc1cc(Cl)c(OCc2cccc(-c3cccc(COc4cc(OCc5cncc(C#N)c5)c(CN5CCCC[C@H]5C(=O)OC)cc4Cl)c3C)c2C)cc1OCc1cncc(C#N)c1 [Example 40300]
27 | 20.1 to 90 |  | COC(=O)C1CCN(Cc2cc(Cl)c(OCc3cccc(-c4cccc(COc5cc(OCc6cncc(C#N)c6)c(CN6CCC(C(=O)OC)C(O)C6)cc5Cl)c4C)c3C)cc2OCc2cncc(C#N)c2)CC1O (stereo not shown) [Example 40310]
28 | 0.04 to 20 |  | COC[C@H](NCc1cc(Cl)c(OCc2cccc(-c3cccc(COc4cc(OCc5cncc(C#N)c5)c(CN[C@@H](COC)C(=O)O)cc4Cl)c3C)c2C)cc1OCc1cncc(C#N)c1)C(=O)O [Example 40340]
29 | 0.04 to 20 |  | Cc1c(COc2cc(OCc3cncc(C#N)c3)c(CN3CCC[C@H]3C(=O)O)cc2Cl)cccc1-c1cccc(COc2cc(OCc3cncc(C#N)c3)c(CN3CCC[C@H]3C(=O)O)cc2Cl)c1C [Example 40350]
30 | 0.04 to 20 |  | Cc1c(COc2cc(OCc3cncc(C#N)c3)c(CN[C@H](C(=O)O)c3ccccc3)cc2Cl)cccc1-c1cccc(COc2cc(OCc3cncc(C#N)c3)c(CN[C@H](C(=O)O)c3ccccc3)cc2Cl)c1C [Example 40360]
31 | 0.04 to 20 |  | Cc1c(COc2cc(OCc3cncc(C#N)c3)c(CN3CCOC[C@@H]3C(=O)O)cc2Cl)cccc1-c1cccc(COc2cc(OCc3cncc(C#N)c3)c(CN3CCOC[C@@H]3C(=O)O)cc2Cl)c1C [Example 40370]
32 | 0.04 to 20 |  | Cc1c(COc2cc(OCc3cncc(C#N)c3)c(CN3CCCC(C(=O)O)C3)cc2Cl)cccc1-c1cccc(COc2cc(OCc3cncc(C#N)c3)c(CN3CCCC(C(=O)O)C3)cc2Cl)c1C (stereo not shown) [Example 40380]
33 | 20.1 to 90 |  | Cc1c(COc2cc(OCc3cncc(C#N)c3)c(CNC(CC(=O)O)c3ccc(F)cc3)cc2Cl)cccc1-c1cccc(COc2cc(OCc3cncc(C#N)c3)c(CNC(CC(=O)O)c3ccc(F)cc3)cc2Cl)c1C (stereo not shown) [Example 40390]
34 | 0.04 to 20 |  | Cc1c(COc2cc(OCc3cncc(C#N)c3)c(CNC(C)CC(=O)O)cc2Cl)cccc1-c1cccc(COc2cc(OCc3cncc(C#N)c3)c(CNC(C)CC(=O)O)cc2Cl)c1C (stereo not shown) [Example 40400]
35 | 0.04 to 20 |  | Cc1c(COc2cc(OCc3cncc(C#N)c3)c(CNCCC(=O)O)cc2Cl)cccc1-c1cccc(COc2cc(OCc3cncc(C#N)c3)c(CNCCC(=O)O)cc2Cl)c1C [Example 40410]
36 | 0.04 to 20 |  | Cc1c(COc2cc(OCc3cncc(C#N)c3)c(CN3CC(C(=O)O)C3)cc2Cl)cccc1-c1cccc(COc2cc(OCc3cncc(C#N)c3)c(CN3CC(C(=O)O)C3)cc2Cl)c1C [Example 40420]
37 | 0.04 to 20 |  | Cc1c(COc2cc(OCc3cncc(C#N)c3)c(CN3C[C@@H](C)C[C@H]3C(=O)O)cc2Cl)cccc1-c1cccc(COc2cc(OCc3cncc(C#N)c3)c(CN3C[C@@H](C)C[C@H]3C(=O)O)cc2Cl)c1C [Example 40430]
38 | 0.04 to 20 |  | Cc1c(COc2cc(OCc3cncc(C#N)c3)c(CNC(C(=O)O)C(C)C)cc2Cl)cccc1-c1cccc(COc2cc(OCc3cncc(C#N)c3)c(CNC(C(=O)O)C(C)C)cc2Cl)c1C (stereo not shown) [Example 40440]
39 | 0.04 to 20 |  | CSCCC(NCc1cc(Cl)c(OCc2cccc(-c3cccc(COc4cc(OCc5cncc(C#N)c5)c(CNC(CCSC)C(=O)O)cc4Cl)c3C)c2C)cc1OCc1cncc(C#N)c1)C(=O)O (stereo not shown) [Example 40450]
40 | 0.04 to 20 |  | Cc1c(COc2cc(OCc3cncc(C#N)c3)c(CNC(Cc3c[nH]c4ccccc34)C(=O)O)cc2Cl)cccc1-c1cccc(COc2cc(OCc3cncc(C#N)c3)c(CNC(Cc3c[nH]c4ccccc34)C(=O)O)cc2Cl)c1C (stereo not shown) [Example 40460]
